In PMC10817945, “Design of a novel analogue peptide with potent antibiofilm activities against Staphylococcus aureus based upon a sapecin B-derived peptide” (Scientific Reports, 2024):
≈ marks a conversion by molar mass, not a printed value. Non-standard residues stand in square brackets, D forms with d. Residues, ends and D or L forms follow the SMILES beside them.

How the values were obtained:
S. aureus ATCC 25923 = format: cell-based, Staphylococcus aureus; settings: ATCC 25923, 2 h
Experimental: To test the retinue of antimicrobial activity of mKLK in human serum, MIC of the serum-treated peptide was determined against S. aureus ATCC 25923 using microdilution broth assay. […] The MIC was determined as the lowest concentration of peptide at which no visible growth is seen[49].

S. aureus = test system: S. aureus; design: method as in ref 17 (Manabe et al.); settings: ref 17 (Manabe et al.); cited from earlier work

Row | Compound | MIC after serum treatment (S. aureus ATCC 25923) [µg/mL] | MIC (S. aureus) [µg/mL]
1 | CC(C)C[C@@H](NC(=O)[C@H](N)Cc1c[nH]c2ccccc12)C(=O)N[C@H](Cc1c[nH]c2ccccc12)C(=O)N[C@H](C)C(=O)N[C@H](CC(C)C)C(=O)N[C@H](CC(C)C)C(=O)N[C@H](CCCCN)C(=O)N[C@H](CC(C)C)C(=O)N[C@H](CC(C)C)C(=O)N[C@H](CCCCN)C(=O)N[C@H](CC(C)C)C(=O)N[C@H](CCCCN)C(N)=O [mKLK] (H-[dW][dL][dW][dA][dL][dL][dK][dL][dL][dK][dL][dK]-NH2; N-terminus assumed) | 4 (≈ 2.62 µM) | –
2 | CC(C)C[C@@H](NC(=O)[C@H](N)CCCCN)C(=O)N[C@H](CCCCN)C(=O)N[C@H](CC(C)C)C(=O)N[C@H](CC(C)C)C(=O)N[C@H](CC(C)C)C(=O)N[C@H](CC(C)C)C(=O)N[C@H](CC(C)C)C(=O)N[C@H](CCCCN)C(=O)N[C@H](CC(C)C)C(=O)N[C@H](CCCCN)C(N)=O [KLK] (H-[dK][dL][dK][dL][dL][dL][dL][dL][dK][dL][dK]-NH2; N-terminus assumed) | – | 4 (≈ 3.03 µM)
